The results in this text go back to EP4653001A1, “TREATMENT, DIAGNOSIS AND/OR PROGNOSIS OF MITOCHONDRIAL DISEASES” (Universidad Autónoma de Madrid, priority 2024, dated 2025).

Molecules are shown by their SMILES.

What all share (type): cell-based
Experiment [1] has as its system mouse cortical neurons. Description: PPP activity measurement in cortical neurons. As to the method: Primary cultures of C57BL/6 mouse cortical neurons were prepared from embryos between embryonic days 16.5 and 17.5 and seeded onto pre-treated plates coated with Poly-L-lysine hydrobromide (500 µg/ml). We used Neurobasal medium without D-glucose and sodium pyruvate (ThermoFisher) to modulate D-glucose levels, depending on the experiment (2.5 mM, 5 mM, or 25 mM).
The determination of pentose-phosphate pathway (PPP) activity was conducted by assessing the difference between 14CO2 production from 1-14C-glucose, which decarboxylates through the 6-phosphogluconate dehydrogenase-catalyzed reaction, and that of 6-^14C-glucose, which decarboxylates through the tricarboxylic acid cycle.
Increased lactate secretion is considered a good indicator of enhanced glycolytic rates, which is a common feature of ETC-inhibited cells as they switch from OXPHOS to glycolysis to maintain ATP levels. […] We culture 143B cells in the presence of Piericidin for 24 h and PPP activity and lactate release, as a proxy of glycolysis, were measured. As expected, lactate detection in the media was higher in CI-inhibited cells. […] Next, we wonder if in this context, glucose can be overused by glycolysis and therefore diverted away from the PPP. Diseases associated with impaired mitochondrial function negatively impact high energy demanding tissues such as the brain. As such, neurons that are highly sensitive to ETC inhibition also rely strongly on glucose metabolism. Thus, we used mouse cortical neurons to determine the rates of glycolysis and PPP as glucose levels become limiting. Control and Piericidin treated neurons where cultured in media containing supraphysiological (25 mM), physiological (5 mM) or subphysiological concentrations of glucose (2,5 mM). […] Decreased PPP activity under low glucose (2,5 mM) correlated with a rapid decline in NADPH/NADP+ levels in CI-inhibited cells. Conversely, glucose availability had no effect on ATP levels at this timepoint.

Experiment [2] has as its system PC KO and ACLY KO cells. Description: Cell number / viability of PC KO and ACLY KO 143B cells. As to the method:
(§1) All cell lines, 143b, HeLa, U2OS, and transmitochondrial cybrids carrying mutation in CI (ND2), CIII (CytB) or CIV (Cox2) subunits, were maintained in DMEM high glucose (HyClone), 10% FBS and 1% P/S at 37°C with 5% CO2. Mitochondrial mutant cells were cultured with supplementation of 50 µg/mL uridine. The selected cancer cell lines with different levels of malic enzyme (HCC15, KYSE410, CAKI1, J82, MDAMB453, Colo320, NCIH1703) were obtained from the DSMZ-German Collection of Microorganisms and Cell Cultures GmbH and cultured in the same DMEM 10% FBS medium. OCI-Lys3 and RCH-ACV cell lines (cells in suspension), were obtained from the same repository and cultured in RPMI 10% FBS medium. Transfections for gain- and loss-of-function studies were performed according to the manufacturer's instructions using the polyfect reagent (Qiagen, 301107). For cell number and proliferation experiments, cells were seeded in 12 or 6-well plates and allowed to proliferate for the specified durations. Subsequently, cells were trypsinized and quantified using a hemocytometer (NanoEnTek, DHC-N01). Cell viability was quantified using propidium iodide (PI; 50 µg/ml) staining.
Generation of knockout cell lines using CRISPR-Cas9 technology was performed with the lenti-CRISPR v2 vector (Addgene #52961). Guide sequences are: • sgGFPT1, 5-[…]-3 (SEQ ID NO: 1); • sgG6PD, 5-[…]-3 (SEQ ID NO: 2); • sgPHGDH, 5-[…]-3 (SEQ ID NO: 3); • sgMPC1, 5-[…]-3 (SEQ ID NO: 4) • sgPC, 5-CAGGCCCGGAACACACGGA-3 (SEQ ID NO: 5); • sgACLY, 5-[…]-3 (SEQ ID NO: 6); • sgME1, 5-[…]-3 (SEQ ID NO: 7).
(§2) To assess the relative contribution of PC and ACLY to cell death phenotype in ETC deficient cells upon PPP inhibition, we treated PC KO and ACLY KO cells with Piericidin, G6PDi or both. A massive reduction in cell viability was observed as early as 48 h in both PC KO and ACLY KO cells after dual inhibition (Figure 3E), which correlated with a significant decrease in the intracellular levels of malate (Figure 3F). […]

The test system of experiment [3] is mouse primary astrocytes. Description: Morphology, proliferation and viability of primary astrocytes. How it is done: as §1
Primary cultures of C57BL/6 mouse cortical astrocytes were derived from postnatal day 2-3 pups. […]

Experiment [4] relates to PC KO and ACLY KO cells. Description: Intracellular malate levels in PC KO and ACLY KO 143B cells. As to conditions: double ablation of PC and ACLY, 100 nM, 72 h. As to the method: 1-5.0×10^6 cells were harvested on dry ice with 1 mL pre-chilled 80% HPLC-grade methanol (Fluka Analytical). The cell mixture was incubated for 15 min on dry ice prior to centrifugation at 18,000 × g for 10 min at 4°C. The supernatant was retained, and the remaining cell pellet was resuspended in 800 µL chilled 80% methanol and centrifuged. Supernatant was combined with the previous retention and was lyophilized using a SpeedVac (Thermo Fisher). Lyophilized samples were resuspended in 20 µL ultrapure water and subjected to metabolomics profiling using the AB/SCIEX 5500 QTRAP triple quadrupole instrument. Data analysis was performed using the GiTools software. 13C-labeled glutamine and glucose was acquired in SIGMA (605166 and 389374).
as §2, with “3F). A plausible explanation for the lack of phenotype in both PC and ACLY KO cells could be the upregulation of compensatory mechanisms whereby PC depletion would cause an enhanced rerouting of glutamine through ACLY and vice versa.” for “3F).”

Turning to `CC=C(C)C(O)C(C)C=C(C)C=CCC(C)=CCc1nc(OC)c(OC)c(O)c1C` (stereo not drawn) [Piericidin, Piericidin A], the PPP activity entry in experiment [1] (5 mM glucose, did not reach statistical significance) is “trend towards reduced PPP activity”; in experiment [1] (limited glucose availability (2,5 mM), 100 nM, 16 h), “prominent drop”; in experiment [1] (neurons cultured in 25 mM glucose, 100 nM, 16 h) it was “significantly upregulation”. Besides, the “cell death or cell proliferation” value in experiment [2] (ACLY KO cells) was “did not translate into increased cell death or impaired cell proliferation”. Besides, the proliferation result is “proliferated normally” in experiment [2] (PC KO cells, 100 nM, 72 h); “proliferated less” in experiment [3] (PC and ME1 knockdown astrocytes vs WT controls, 100nM, 96 h). Also, the “sensitivity to ETC inhibition (cell number)” value in experiment [2] (double ablation of PC and ACLY, 100 nM, 72 h) is “sensitize”. For the same compound, in experiment [3] (mouse primary astrocytes), the “morphology, proliferation, or overall viability” value is “no discernible impact”. Further, the intracellular malate levels result in experiment [4] was “parallel decrease”.
